Source: PMC8004929, “Whole-Body Pharmacokinetics and Physiologically Based Pharmacokinetic Model for Monomethyl Auristatin E (MMAE)” (Journal of Clinical Medicine, 2021)
Square brackets hold non-standard residues; d marks the D form. Peptide text beside a SMILES is read from it. * marks the point of attachment. Dolaproine = CO[C@@H]([C@@H]1CCCN1)[C@@H](C)C(=O)O; Dil = CC[C@H](C)[C@H](NC)[C@@H](CC(=O)O)OC; X1 = C[C@@H](N*)[C@@H](O)c1ccccc1; NMeV = CN[C@H](C(=O)O)C(C)C

Assays:
[1] = PBPK model fitting and parameter estimation for MMAE; conditions: PBPK model estimate (CV%), mice, 0.1 mg/kg i.v.
Text: The PBPK model included 16 tissues and a tumor compartment, and all of them were connected via blood flow and arranged anatomically. The tissue compartments included blood, lung, heart, kidney, muscle, skin, liver, brain, adipose, thymus, bone, small intestine, large intestine, spleen, pancreas, and other (i.e., carcass). All the other tissues, except those mentioned, were lumped into the ‘other’ compartment. The arterial blood to each organ was delivered by the efferent blood supplied from the lung, which perfused to each organ and then converged into the blood compartment, which represents the venous pool. Venous blood returned from the small intestine, large intestine, spleen, and pancreas were delivered to the liver. For the intestines, spleen, and pancreas, blood was delivered to the liver via the hepatic portal vein and mixed with liver artery blood after leaving the tissues. The delivery of the blood from the blood compartment to the lung completed the circulation of the flow. Based on in vitro, preclinical, and clinical data, the elimination of MMAE was assumed to be predominantly through the CYP3A4/5-mediated metabolic pathway and biliary/fecal excretion. Limited renal excretion (<10%) of MMAE has been reported. Therefore, we assumed that MMAE was eliminated solely via hepatic clearance (CL) from the liver interstitial space.
Each tissue compartment was further divided into the vascular, endothelial cell, interstitial, and cellular sub-compartments, and vascular space was divided into plasma and blood cells, as shown in Figure 1b. We aimed to make the sub-compartment division the same as our previously published platform antibody PBPK model, and thus, one can easily connect MMAE and an antibody PBPK model to build an ADC PBPK model. The rapid distribution of MMAE between plasma, endothelial cells, and interstitial space was assumed, and thus, the distribution rate between these compartments was set as a value 1000 times higher than the value of blood flow in each tissue. […] The partitioning of MMAE to the blood cells or cellular space was characterized using the KP values. The calculated KP values were adjusted for the ratios of cellular space volume to total tissue volume by dividing KP values with the ratio in each tissue. […] Only free MMAE was assumed to diffuse through the cellular membrane, and thus, the fraction of unbound drug in blood cells or tissue cellular space ( fu,t ) was calculated using Equation (2). (2) fu,t=fu,p/KP,i,
Equations (3) and (4) describe blood cell and plasma concentrations of MMAE, respectively. Equations that described MMAE concentration in the liver (Equations (5)–(9)), lung (Equations (10)–(14)), a typical tissue (Equations (15)–(19)), and tumor (Equations (20)–(23)) are provided below. In these equations, Qplasmai and QBClung are plasma flow and blood cell flow to the tissue i. Vplasma and VBC are volumes of central plasma and blood cell compartments. Vplasmai , VBCi , Vendoi , VISi , and Vcellulari are volumes of vascular, blood cell, endosomal, interstitial, and cellular compartments for tissue i. Cplasma and CBC are MMAE concentration in systemic plasma and blood cell compartments. Cplasmai , CBCi , Cendoi , CISi , and Ccellulari are MMAE concentration in vascular, blood cell, endosomal, interstitial, and cellular compartments of tissue i. PSBC is the permeability coefficient for the blood cell sub-compartment.
Physiological parameters for mice were obtained from our previously published PBPK model. Radius of the tumor blood capillary ( Rcap ), average distance between two capillaries ( Rkrough ), tumor void volume for MMAE ( ε ), P, D, and efflux rate of MMAE from the cells ( kout ) were obtained from the literature. […]

[2] = tested on: tumor cells; conditions: cited from earlier work
Text: Table 1 A glossary of literature-derived and estimated parameters used for the MMAE PBPK model. | column: Value

[3] = tested on: tubulin; conditions: cited from earlier work
Text: Table 1 A glossary of literature-derived and estimated parameters used for the MMAE PBPK model. | column: Value || Physiological parameters for mice were obtained from our previously published PBPK model. Radius of the tumor blood capillary ( Rcap ), average distance between two capillaries ( Rkrough ), tumor void volume for MMAE ( ε ), P, D, and efflux rate of MMAE from the cells ( kout ) were obtained from the literature.

[4] = mice, assumed from reported plasma protein binding; cited from earlier work
Text: Table 1 A glossary of literature-derived and estimated parameters used for the MMAE PBPK model. | column: Value || Each tissue compartment was further divided into the vascular, endothelial cell, interstitial, and cellular sub-compartments, and vascular space was divided into plasma and blood cells, as shown in Figure 1b. We aimed to make the sub-compartment division the same as our previously published platform antibody PBPK model, and thus, one can easily connect MMAE and an antibody PBPK model to build an ADC PBPK model. The rapid distribution of MMAE between plasma, endothelial cells, and interstitial space was assumed, and thus, the distribution rate between these compartments was set as a valu ... || Plasma protein binding plays a vital role in tissue distribution of small molecule drugs. […] Based on the reported mice data, fu,p was assumed to be 0.2, and it was used as a concentration-independent parameter in the PBPK model. Of note, species-dependence of fraction unbound should be considered when further scaling up the current MMAE PBPK model to different species. Based on free hormone hypothesis, it was assumed that ...

[5] = bile-duct cannulated rat; cited from earlier work
Protocol: The scaling factors used were 135 ± 10 (10^6 cells/g) for hepatocytes and 41.9 ± 24.5 (mg/g) for microsome studies. Metabolic CL and non-metabolic (mostly biliary) CL were assumed to account for 40% and 60% of total CL. This assumption is based on a human mass balance study and a bile-duct cannulated rat study, which reported that ≈60% of MMAE is excreted unchanged in the bile. As such, the CLint extrapolated from in vitro study was 109–126 mL/min (hepatocyte) and 121–462 mL/min (microsome). The CLint approximated from our in vivo data was 146 mL/min using the convent ...

[6] = tested on: CYP3A; conditions: in vivo and in vitro studies; cited from earlier work
Text: The PBPK model of MMAE presented here can further be used to assess drug–drug interactions of MMAE containing ADCs. In vivo and in vitro studies indicate that MMAE is a substrate of CYP3A and P-glycoprotein [34]. As such, the polymorphism of CYP3A and P-glycoprotein may affect the PK of MMAE, and consequently the efficacy and toxicity of MMAE-conjugated ADCs. As such, the MMAE PBPK model can serve as a tool to explore drug interactions of ADCs.

With `CC[C@H](C)[C@@H]([C@@H](CC(=O)N1CCC[C@H]1[C@H](OC)[C@@H](C)C(=O)N[C@H](C)[C@@H](O)c1ccccc1)OC)N(C)C(=O)[C@@H](NC(=O)[C@@H](NC)C(C)C)C(C)C` [MMAE, Monomethyl auristatin E] (H-[NMeV]V[Dil][Dolaproine]-X1) the “CLint (liver intrinsic clearance)” value [1] was 137 (8.92) mL/h, the “PSblood (permeability-surface area coefficient)” value ([1]; blood cells) was 0.105 (12.6) mL/h and the “PSbone (permeability-surface area coefficient)” value ([1]; bone) was 0.568 (20.9) mL/h. The “PSbrain (permeability-surface area coefficient)” value ([1]; brain) was 0.00825 (40.4) mL/h, the “PSfat (permeability-surface area coefficient)” value ([1]; fat) was 0.588 (23.5) mL/h and the “PSheart (permeability-surface area coefficient)” value ([1]; heart) was 1.47 (17.1) mL/h. For the same molecule, the “PSkidney (permeability-surface area coefficient)” value ([1]; kidney) was 14.2 (20.2) mL/h, the “PSliver (permeability-surface area coefficient)” value ([1]; liver) was 49.2 (48.4) mL/h and the “PSlung (permeability-surface area coefficient)” value ([1]; lung) was 2.47 (13.2) mL/h. The “PSmuscle (permeability-surface area coefficient)” value ([1]; muscle) was 3.16 (21.1) mL/h, the “PSpancreas (permeability-surface area coefficient)” value ([1]; pancreas) was 0.0657 (18.7) mL/h and the “PSskin (permeability-surface area coefficient)” value ([1]; skin) was 0.681 (30.6) mL/h. For the same molecule, the “PSspleen (permeability-surface area coefficient)” value ([1]; spleen) was 0.457 (18.5) mL/h, the “kout, first-order efflux rate of MMAE from intracellular to extracellular space” value [2] was 0.046 h⁻¹ and the “ε, tumor void volume for MMAE” value [2] was 0.44. For the same molecule, the “D, diffusion rate across the blood vessels” value ([2]; tumor) was 0.0104 cm^2/h, the “koff, first-order dissociation rate constant between MMAE–tubulin complex” value ([3]; assumed) was 0.000151 s⁻¹ and the Kd ([3]; read-out: equilibrium dissociation rate (KD) of MMAE for free tubulin) was 291 nM. For the same molecule, the “fu,p, fraction unbound in plasma” value [4] was 0.8, the “MMAE excreted unchanged in the bile” value [5] was “≈ 60%” and the “substrate of CYP3A” value [6] was “substrate”.
